Experimental data as given in ChEMBL document CHEMBL5729615, “Inhibitors of protein arginine methyltransferase 5 (PRMT5), pharmaceutical products thereof, and methods thereof” (2023).

Biological target: PRMT5/MEP50 complex (Homo sapiens, UniProt O14744)
Test: 2.5 μL of compound solution in the assay buffer with 4% DMSO and 5 μL of PRMT5/MRP50 complex/SAM mixture solution in the assay buffer which was pre-incubated for 30 minutes were added into a white low volume 384 well microtiter plate. This mixture solution was incubated for 15 minutes with gentle shaking at room temperature. Methyl transfer reaction was initiated by adding 2.5 μL of Biotin-H4 (1-21) peptide substrate solution in the assay buffer. […] The reaction was allowed to perform for 120 minutes in dark with gentle shaking at room temperature after which 5 μL of Anti-H4R3-Me AlphaLISA acceptor beads in detection buffer from the manufacturer was added into the reaction mixture followed by incubation for 60 minutes. 10 μL of Streptavidin labeled AlphaLISA donor beads in detection buffer was added into the mixture followed by 30 minute incubation. Final acceptor and donor beads concentrations were 10 μg/mL.
Assay type: protein-complex assay

PRMT5/MEP50 complex, sequence (O14744 whole entry): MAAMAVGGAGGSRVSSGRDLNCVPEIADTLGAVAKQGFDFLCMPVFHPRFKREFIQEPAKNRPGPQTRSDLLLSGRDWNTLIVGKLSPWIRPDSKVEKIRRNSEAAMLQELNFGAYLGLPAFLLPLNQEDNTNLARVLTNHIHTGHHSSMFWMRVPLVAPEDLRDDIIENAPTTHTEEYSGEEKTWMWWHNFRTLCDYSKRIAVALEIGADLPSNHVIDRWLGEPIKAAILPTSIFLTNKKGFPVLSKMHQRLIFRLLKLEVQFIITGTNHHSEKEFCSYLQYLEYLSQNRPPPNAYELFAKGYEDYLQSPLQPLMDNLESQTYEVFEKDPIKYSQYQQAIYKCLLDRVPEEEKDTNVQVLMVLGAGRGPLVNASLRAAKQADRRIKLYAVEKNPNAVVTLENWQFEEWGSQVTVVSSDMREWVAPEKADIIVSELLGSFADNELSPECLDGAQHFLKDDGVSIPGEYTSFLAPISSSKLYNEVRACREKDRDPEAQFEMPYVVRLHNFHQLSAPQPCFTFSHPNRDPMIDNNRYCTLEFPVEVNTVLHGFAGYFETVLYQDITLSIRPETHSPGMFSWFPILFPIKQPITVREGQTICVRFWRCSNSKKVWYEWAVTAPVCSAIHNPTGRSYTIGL
PRMT5/MEP50 complex, sequence (Q9BQA1 whole entry, further chain): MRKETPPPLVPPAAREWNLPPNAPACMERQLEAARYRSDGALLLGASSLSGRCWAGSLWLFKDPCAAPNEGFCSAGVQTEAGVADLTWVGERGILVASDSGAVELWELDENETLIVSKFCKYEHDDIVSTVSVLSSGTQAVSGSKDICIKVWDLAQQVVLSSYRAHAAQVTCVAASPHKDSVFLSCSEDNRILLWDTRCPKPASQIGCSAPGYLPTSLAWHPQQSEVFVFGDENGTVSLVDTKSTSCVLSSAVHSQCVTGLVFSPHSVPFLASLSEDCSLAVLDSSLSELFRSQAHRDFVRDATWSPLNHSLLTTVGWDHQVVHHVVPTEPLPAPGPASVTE

IC50: 236 nM
SMILES: O=C1c2cc(NC3CCC3)ccc2CCN1CC(O)CN1CCc2ccccc2C1 (stereo unspecified)
